From US20170224662A1 (priority 2016, published 2017)
Marks after values point to notes of the source that are not given here.

Experiment: Binary excipient screening: stability of CPMM 1 mg/mL in IV-compatible excipient solutions in 10 mM pH 3 phosphate buffer
Type: physicochemical
Settings: for CPMM % Purity: t = 0
Protocol: CPMM was evaluated for compatibility with excipients that are suitable for IV administration. A buffer solution (phosphate at pH 3) was selected as the diluent for excipient screening studies. […] CPMM was solubilized in each excipient solution at 1 mg/mL.
While CPMM completely dissolved in the control sample within several minutes, many of the excipient solutions required overnight storage at 5° C. to solubilize the drug.
Each excipient sample solution was placed on a two-week stability study at 25° C./60% relative humidity and 40° C./75% relative humidity, and analyzed for CPMM purity at t=0, 1, and 2 weeks by comparing individual samples to their respective excipient blank solution.

COC(=O)C1(OC(=O)c2cncn2[C@H](C)c2ccccc2)CC1 [CPMM, 1-(methoxycarbonyl)cyclopropyl-1-[(1R)-1-phenylethyl]-1H-imidazole-5-carboxylate]
Change in CPMM % Purity (Ascorbic Acid 0.5% in pH 3 buffer, 1 week 25° C./60% RH): −14.4%
Change in CPMM % Purity (Ascorbic Acid 0.5% in pH 3 buffer, 1 week 40° C./75% RH): −31.6%
Change in CPMM % Purity (Ascorbic Acid 0.5% in pH 3 buffer, 2 weeks 25° C./60% RH): −26.4%
Change in CPMM % Purity (Ascorbic Acid 0.5% in pH 3 buffer, 2 weeks 40° C./75% RH): −49.8%
CPMM % Purity (Ascorbic Acid 0.5% in pH 3 buffer): 97.6%
Change in CPMM % Purity (Ascorbic Acid/Edetate Disodium Dihydrate 0.5%/0.05% in pH 3 buffer, 1 week 25° C./60% RH): −2.2%
Change in CPMM % Purity (Ascorbic Acid/Edetate Disodium Dihydrate 0.5%/0.05% in pH 3 buffer, 1 week 40° C./75% RH): −9.8%
Change in CPMM % Purity (Ascorbic Acid/Edetate Disodium Dihydrate 0.5%/0.05% in pH 3 buffer, 2 weeks 25° C./60% RH): −4.2%
Change in CPMM % Purity (Ascorbic Acid/Edetate Disodium Dihydrate 0.5%/0.05% in pH 3 buffer, 2 weeks 40° C./75% RH): −17.8%
CPMM % Purity (Ascorbic Acid/Edetate Disodium Dihydrate 0.5%/0.05% in pH 3 buffer): 99.4%
Change in CPMM % Purity (Control: Water, 1 week 25° C./60% RH): −0.9%
Change in CPMM % Purity (Control: Water, 1 week 40° C./75% RH): −3.4%
CPMM % Purity (Control: Water): 99.4%
Change in CPMM % Purity (Control: pH 3 Buffer, 1 week 25° C./60% RH): −1.6%
Change in CPMM % Purity (Control: pH 3 Buffer, 1 week 40° C./75% RH): −5.3%
Change in CPMM % Purity (Control: pH 3 Buffer, 2 weeks 25° C./60% RH): −2.6%
Change in CPMM % Purity (Control: pH 3 Buffer, 2 weeks 40° C./75% RH): −9.2%
CPMM % Purity (Control: pH 3 Buffer): 99.5%
Change in CPMM % Purity (Dextrose 5% in pH 3 buffer, 1 week 25° C./60% RH): −1.5%
Change in CPMM % Purity (Dextrose 5% in pH 3 buffer, 1 week 40° C./75% RH): −5.2%
Change in CPMM % Purity (Dextrose 5% in pH 3 buffer, 2 weeks 25° C./60% RH): −2.5%
Change in CPMM % Purity (Dextrose 5% in pH 3 buffer, 2 weeks 40° C./75% RH): −9.0%
CPMM % Purity (Dextrose 5% in pH 3 buffer): 99.4%
Change in CPMM % Purity (Ethanol 10% in pH 3 buffer, 1 week 25° C./60% RH): −1.1%
Change in CPMM % Purity (Ethanol 10% in pH 3 buffer, 1 week 40° C./75% RH): −3.2%
Change in CPMM % Purity (Ethanol 10% in pH 3 buffer, 2 weeks 25° C./60% RH): −3.1%
Change in CPMM % Purity (Ethanol 10% in pH 3 buffer, 2 weeks 40° C./75% RH): −7.0%
CPMM % Purity (Ethanol 10% in pH 3 buffer): 99.5%
Change in CPMM % Purity (Glycerol 10% in pH 3 buffer, 1 week 25° C./60% RH): −1.3%
Change in CPMM % Purity (Glycerol 10% in pH 3 buffer, 1 week 40° C./75% RH): −4.7%
Change in CPMM % Purity (Glycerol 10% in pH 3 buffer, 2 weeks 25° C./60% RH): −3.6%
Change in CPMM % Purity (Glycerol 10% in pH 3 buffer, 2 weeks 40° C./75% RH): −9.8%
CPMM % Purity (Glycerol 10% in pH 3 buffer): 99.4%
Change in CPMM % Purity (HPβCD 10% in pH 3 buffer, 1 week 25° C./60% RH): −0.4%
Change in CPMM % Purity (HPβCD 10% in pH 3 buffer, 1 week 40° C./75% RH): −1.6%
Change in CPMM % Purity (HPβCD 10% in pH 3 buffer, 2 weeks 25° C./60% RH): −0.6%
Change in CPMM % Purity (HPβCD 10% in pH 3 buffer, 2 weeks 40° C./75% RH): −2.5%
CPMM % Purity (HPβCD 10% in pH 3 buffer): 99.4%
Change in CPMM % Purity (KCl 5% in pH 3 buffer, 1 week 25° C./60% RH): −1.3%
Change in CPMM % Purity (KCl 5% in pH 3 buffer, 1 week 40° C./75% RH): −4.8%
Change in CPMM % Purity (KCl 5% in pH 3 buffer, 2 weeks 25° C./60% RH): −2.2%
Change in CPMM % Purity (KCl 5% in pH 3 buffer, 2 weeks 40° C./75% RH): −8.2%
CPMM % Purity (KCl 5% in pH 3 buffer): 99.4%
Change in CPMM % Purity (Lutrol F68 1% in pH 3 buffer, 1 week 25° C./60% RH): −1.6%
Change in CPMM % Purity (Lutrol F68 1% in pH 3 buffer, 1 week 40° C./75% RH): −5.2%
Change in CPMM % Purity (Lutrol F68 1% in pH 3 buffer, 2 weeks 25° C./60% RH): −2.5%
Change in CPMM % Purity (Lutrol F68 1% in pH 3 buffer, 2 weeks 40° C./75% RH): −9.0%
CPMM % Purity (Lutrol F68 1% in pH 3 buffer): 99.5%
Change in CPMM % Purity (Mannitol 5% in pH 3 buffer, 1 week 25° C./60% RH): −1.5%
Change in CPMM % Purity (Mannitol 5% in pH 3 buffer, 1 week 40° C./75% RH): −5.2%
Change in CPMM % Purity (Mannitol 5% in pH 3 buffer, 2 weeks 25° C./60% RH): −2.6%
Change in CPMM % Purity (Mannitol 5% in pH 3 buffer, 2 weeks 40° C./75% RH): −9.1%
CPMM % Purity (Mannitol 5% in pH 3 buffer): 99.4%
Change in CPMM % Purity (NaCl 5% in pH 3 buffer, 1 week 25° C./60% RH): −1.1%
Change in CPMM % Purity (NaCl 5% in pH 3 buffer, 1 week 40° C./75% RH): −4.0%
Change in CPMM % Purity (NaCl 5% in pH 3 buffer, 2 weeks 25° C./60% RH): −1.9%
Change in CPMM % Purity (NaCl 5% in pH 3 buffer, 2 weeks 40° C./75% RH): −7.2%
CPMM % Purity (NaCl 5% in pH 3 buffer): 99.4%
Change in CPMM % Purity (PEG 400 10% in pH 3 buffer, 1 week 25° C./60% RH): −1.2%
Change in CPMM % Purity (PEG 400 10% in pH 3 buffer, 1 week 40° C./75% RH): −4.0%
Change in CPMM % Purity (PEG 400 10% in pH 3 buffer, 2 weeks 25° C./60% RH): −2.0%
Change in CPMM % Purity (PEG 400 10% in pH 3 buffer, 2 weeks 40° C./75% RH): −7.0%
CPMM % Purity (PEG 400 10% in pH 3 buffer): 99.5%
CPMM % Purity (PVP K17 5% in pH 3 buffer, excipient peak co-elutes with several related substances, not accounted for): 99.6%*
Change in CPMM % Purity (Polysorbate 20 1% in pH 3 buffer, 1 week 25° C./60% RH): −1.4%
Change in CPMM % Purity (Polysorbate 20 1% in pH 3 buffer, 1 week 40° C./75% RH): −4.6%
Change in CPMM % Purity (Polysorbate 20 1% in pH 3 buffer, 2 weeks 25° C./60% RH): −2.1%
Change in CPMM % Purity (Polysorbate 20 1% in pH 3 buffer, 2 weeks 40° C./75% RH): −8.1%
CPMM % Purity (Polysorbate 20 1% in pH 3 buffer): 99.4%
Change in CPMM % Purity (Polysorbate 80 1% in pH 3 buffer, 1 week 25° C./60% RH, may be due to excipient impurities): −4.2%^†
Change in CPMM % Purity (Polysorbate 80 1% in pH 3 buffer, 1 week 40° C./75% RH, may be due to excipient impurities): −8.3%^†
Change in CPMM % Purity (Polysorbate 80 1% in pH 3 buffer, 2 weeks 25° C./60% RH, may be due to excipient impurities): −5.2%^†
Change in CPMM % Purity (Polysorbate 80 1% in pH 3 buffer, 2 weeks 40° C./75% RH, may be due to excipient impurities): −15.0%^†
CPMM % Purity (Polysorbate 80 1% in pH 3 buffer): 99.4%
Change in CPMM % Purity (Propylene Glycol 10% in pH 3 buffer, 1 week 25° C./60% RH): −1.2%
Change in CPMM % Purity (Propylene Glycol 10% in pH 3 buffer, 1 week 40° C./75% RH): −4.0%
Change in CPMM % Purity (Propylene Glycol 10% in pH 3 buffer, 2 weeks 25° C./60% RH): −1.9%
Change in CPMM % Purity (Propylene Glycol 10% in pH 3 buffer, 2 weeks 40° C./75% RH): −6.9%
CPMM % Purity (Propylene Glycol 10% in pH 3 buffer): 99.4%
Change in CPMM % Purity (SBECD 10% in pH 3 buffer, 1 week 25° C./60% RH): −0.4%
Change in CPMM % Purity (SBECD 10% in pH 3 buffer, 1 week 40° C./75% RH): −1.3%
Change in CPMM % Purity (SBECD 10% in pH 3 buffer, 2 weeks 25° C./60% RH): −0.4%
Change in CPMM % Purity (SBECD 10% in pH 3 buffer, 2 weeks 40° C./75% RH): −2.1%
CPMM % Purity (SBECD 10% in pH 3 buffer): 99.4%
Change in CPMM % Purity (Sodium Bisulfite 0.5% in pH 3 buffer, 1 week 25° C./60% RH): −1.9%
Change in CPMM % Purity (Sodium Bisulfite 0.5% in pH 3 buffer, 1 week 40° C./75% RH): −7.2%
Change in CPMM % Purity (Sodium Bisulfite 0.5% in pH 3 buffer, 2 weeks 25° C./60% RH): −3.2%
Change in CPMM % Purity (Sodium Bisulfite 0.5% in pH 3 buffer, 2 weeks 40° C./75% RH): −12.2%
CPMM % Purity (Sodium Bisulfite 0.5% in pH 3 buffer): 99.4%
Change in CPMM % Purity (Solutol HS15 1% in pH 3 buffer, 1 week 25° C./60% RH): −1.3%
Change in CPMM % Purity (Solutol HS15 1% in pH 3 buffer, 1 week 40° C./75% RH): −4.2%
Change in CPMM % Purity (Solutol HS15 1% in pH 3 buffer, 2 weeks 25° C./60% RH): −2.1%
Change in CPMM % Purity (Solutol HS15 1% in pH 3 buffer, 2 weeks 40° C./75% RH): −7.3%
CPMM % Purity (Solutol HS15 1% in pH 3 buffer): 99.4%
Change in CPMM % Purity (Sorbitol 5% in pH 3 buffer, 1 week 25° C./60% RH): −1.3%
Change in CPMM % Purity (Sorbitol 5% in pH 3 buffer, 1 week 40° C./75% RH): −4.5%
Change in CPMM % Purity (Sorbitol 5% in pH 3 buffer, 2 weeks 25° C./60% RH): −2.3%
Change in CPMM % Purity (Sorbitol 5% in pH 3 buffer, 2 weeks 40° C./75% RH): −8.3%
CPMM % Purity (Sorbitol 5% in pH 3 buffer): 99.5%
Change in CPMM % Purity (Sucrose 5% in pH 3 buffer, 1 week 25° C./60% RH): −1.5%
Change in CPMM % Purity (Sucrose 5% in pH 3 buffer, 1 week 40° C./75% RH): −5.2%
Change in CPMM % Purity (Sucrose 5% in pH 3 buffer, 2 weeks 25° C./60% RH): −2.5%
Change in CPMM % Purity (Sucrose 5% in pH 3 buffer, 2 weeks 40° C./75% RH): −9.0%
CPMM % Purity (Sucrose 5% in pH 3 buffer): 99.4%
Change in CPMM % Purity (Trehalose 5% in pH 3 buffer, 1 week 25° C./60% RH): −1.3%
Change in CPMM % Purity (Trehalose 5% in pH 3 buffer, 1 week 40° C./75% RH): −4.6%
Change in CPMM % Purity (Trehalose 5% in pH 3 buffer, 2 weeks 25° C./60% RH): −2.3%
Change in CPMM % Purity (Trehalose 5% in pH 3 buffer, 2 weeks 40° C./75% RH): −8.4%
CPMM % Purity (Trehalose 5% in pH 3 buffer): 99.4%
